Read-outs that look alike come from different tables or passages of the source.
System: HCV 1b RLuc cells (dicistronic genotype 1b Con1 replicon)
Experiment: Renilla luciferase (RLuc)-based HCV replicon reporter assay
Format: cell-based, HCV genotype 1b
Conditions: HCV 1b RLuc replicon, 72 hours, read-out: Activity (antiviral potency [EC50])
Description: Antiviral potency (EC50) was determined using a Renilla luciferase (RLuc)-based HCV replicon reporter assay. To perform the assay, HCV 1b RLuc cells (harboring a dicistronic genotype 1b Con1 replicon that encodes a RLuc reporter), or HCV 1a RLuc cells (harboring a dicistronic genotype 1a H77 replicon that encodes a RLuc reporter), were dispensed into 384-well plates. Compounds were re-suspended in DMSO at a concentration of 10 mM and serially diluted in DMSO using an automated pipeting instrument. Serially diluted compounds were mixed with cell culture media and added to the seeded cells. DMSO was used as a negative (solvent) control, and the protease inhibitor ITMN-191 was included at a concentration >100×EC50 as a positive control. 72 hours later, cells were lysed and Renilla luciferase activity quantified as recommended by the manufacturer (Promega-Madison, Wis.). Non-linear regression was performed to calculate EC50 values.
Biological data (antiviral potency [EC50] was determined using a Renilla luciferase (RLuc)-based HCV replicon reporter assay—HCV 1b RLuc) for representative compounds of the invention is provided in the following table. These compounds can be prepared using procedures similar to those described above.

Row | SMILES | EC50 (Hepatitis C virus, 72 h) [nM] | EC50 [nM]
1 | COC(=O)N[C@H](C(=O)N1CCC(c2ncc(-c3ccc(-c4ccc(-c5cnc([C@@H]6CCCN6C(=O)[C@@H](NC(=O)OC)C(C)C)[nH]5)cc4)cc3)[nH]2)C1)C(C)C (stereo partly drawn) | 0.775 | –
2 | COC(=O)NC(C(=O)N1CCC[C@H]1c1ncc(-c2ccc(C#Cc3ccc(-c4cnc([C@@H]5CCCN5C(=O)[C@@H](NC(=O)OC)C(C)C)[nH]4)cc3)cc2)[nH]1)C(F)(F)F (stereo partly drawn) | > 44.4 | –
3 | COC(=O)N[C@H](C(=O)N1CCC[C@H]1c1ncc(-c2ccc(C#Cc3ccc(-c4cnc([C@@H]5CN(C(=O)OC(C)(C)C)CCN5C(=O)[C@@H](NC(=O)OC)C(C)C)[nH]4)cc3)cc2)[nH]1)C(C)C | 4.73 | –
4 | COC(=O)N[C@H](C(=O)N1CCC[C@H]1c1ncc(-c2ccc(N3CCN(c4ccc(-c5cnc([C@@H]6CCCN6C(=O)[C@@H](NC(=O)OC)C(C)C)[nH]5)cc4)CC3)cc2)[nH]1)C(C)C | 0.199 | –
5 | COC(=O)N[C@H](C(=O)N1CCC[C@H]1c1ncc(-c2ccc3cc(-c4ccc(-c5cnc([C@@H]6CCCN6C(=O)[C@H](OC)c6ccccc6)[nH]5)cc4)ccc3c2)[nH]1)C(C)C | 0.0163 | –
6 | COC(=O)N[C@H](C(=O)N1CCC[C@H]1c1ncc(-c2ccc3cc(-c4ccc(-c5cnc([C@@H]6[C@H]7CC[C@H](C7)N6C(=O)[C@@H](NC(=O)OC)C(C)C)[nH]5)cc4)ccc3c2)[nH]1)C(C)C | 0.006 | –
7 | COC(=O)N[C@H](C(=O)N1CCC[C@H]1c1ncc(-c2ccc3c(c2)CCc2cc(-c4cnc([C@@H]5[C@H]6CC[C@H](C6)N5C(=O)[C@@H](NC(=O)OC)C(C)C)[nH]4)ccc2-3)[nH]1)C(C)C | 0.0088 | –
8 | COC(=O)N[C@H](C(=O)N1CCC[C@H]1c1ncc(-c2ccc3cc(-c4ccc5[nH]c([C@@H]6CCN6C(=O)[C@@H](NC(=O)OC)C(C)C)nc5c4)ccc3c2)[nH]1)C(C)C | 0.026 | –
9 | COC(=O)NC(C(=O)N1CCC[C@H]1c1ncc(-c2ccc(-c3ccc4cc(-c5cnc([C@@H]6CCCN6C(=O)[C@@H](NC(=O)OC)C(C)C)[nH]5)ccc4c3)cc2)[nH]1)c1ccccc1 (stereo partly drawn) | 0.0097 | –
10 | COC(=O)N[C@H](C(=O)N1CN(C(=O)OC(C)(C)C)C[C@H]1C(=O)NCC(=O)c1ccc(-c2ccc(-c3cnc([C@@H]4CCCN4C(=O)[C@@H](NC(=O)OC)C(C)C)[nH]3)cc2)cc1)C(C)C | 3.41 | –
11 | COC(=O)N[C@H](C(=O)N1CCC[C@H]1c1ncc(-c2ccc(-c3ccc(-c4ccc5nc([C@@H]6CCCN6C(=O)[C@@H](NC(=O)OC)C(C)C)[nH]c5c4)s3)cc2)[nH]1)C(C)C | 0.003 | –
12 | COC(=O)N[C@H](C(=O)N1CCC[C@H]1c1ncc(-c2ccc(-c3ccc(-c4cnc([C@@H]5CN(c6ccccc6)CN5C(=O)[C@@H](NC(=O)OC)C(C)C)[nH]4)cc3)cc2)[nH]1)C(C)C | 0.0074 | –
13 | COC(=O)N[C@H](C(=O)N1[C@@H]2CC[C@@H](C2)[C@H]1c1ncc(-c2ccc(-c3ccc(-c4cnc([C@@H]5[C@H]6CC[C@H](C6)N5C(=O)[C@@H](NC(=O)OC)C(C)C)[nH]4)cc3)cc2)[nH]1)C(C)C | 0.01 | –
14 | COC(=O)N[C@H](C(=O)N1CCC[C@H]1c1ncc(-c2ccc3c(c2)Cc2cc(-c4cnc([C@@H]5CCCN5C(=O)[C@@H](NC(=O)OC)C(C)C)[nH]4)ccc2-3)[nH]1)C(C)C | 0.0137 | –
15 | COC(=O)N[C@H](C(=O)N1CCC[C@H]1c1ncc(C#Cc2cccc3c(C#Cc4cnc([C@@H]5CCCN5C(=O)[C@@H](NC(=O)OC)C(C)C)[nH]4)cccc23)[nH]1)C(C)C | 0.0142 | –
16 | COC(=O)N[C@H](C(=O)N1CCC[C@H]1c1ncc(-c2ccc(N3CCC(c4cnc([C@@H]5CCCN5C(=O)[C@@H](NC(=O)OC)C(C)C)[nH]4)CC3)cc2)[nH]1)C(C)C | 0.456 | –
17 | COC(=O)N[C@H](C(=O)N1CCC[C@H]1c1ncc(-c2ccc3c(c2)oc2cc(-c4ccc5nc([C@@H]6CCCN6C(=O)[C@@H](NC(=O)OC)C(C)C)[nH]c5c4)ccc23)[nH]1)C(C)C | 0.0075 | –
18 | COC(=O)N[C@H](C(=O)N1CCC[C@H]1C(=O)Nc1ccc(CCc2ccc(NC(=O)[C@@H]3CCCN3C(=O)[C@@H](NC(=O)OC)C(C)C)cc2)cc1)C(C)C | 0.264 | –
19 | COC(=O)N[C@H](C(=O)N1CCC[C@H]1c1ncc(-c2ccc3cc(-c4ccc(-c5cnc([C@@H]6CCCN6C(=O)[C@H](c6ccccc6)C(C)C)[nH]5)cc4)ccc3c2)[nH]1)C(C)C | 0.0112 | –
20 | COC(=O)N[C@H](C(=O)N1CCC[C@H]1c1nc2ccc(-c3cc4cc5sc(-c6ccc7nc([C@@H]8CCCN8C(=O)[C@@H](NC(=O)OC)C(C)C)[nH]c7c6)cc5cc4s3)cc2[nH]1)C(C)C | 0.014 | –

Row | SMILES | EC50 (Hepatitis C virus, 72 h) [nM] | EC50 [nM]
21 | COC(=O)N[C@H](C(=O)N1CC2(CC2)C[C@H]1c1ncc(-c2ccc3cc(-c4ccc(-c5cnc([C@@H]6CCCN6C(=O)[C@@H](NC(=O)OC)C(C)OC)[nH]5)cc4)ccc3c2)[nH]1)C(C)C (stereo partly drawn) | 0.0074 | –
22 | COC(=O)N[C@H](C(=O)N1CCC[C@H]1c1ncc(-c2ccc3cc(-c4ccc(-c5cnc([C@@H]6CCCN6C(=O)[C@H](OC(=O)N(C)C)c6ccccc6)[nH]5)cc4)ccc3c2)[nH]1)C(C)C | 0.0083 | –
23 | COC(=O)N[C@H](C(=O)N1CCC[C@H]1c1ncc(-c2ccc(C#Cc3ccc(-c4cnc([C@@H]5COCCN5C(=O)[C@@H](NC(=O)OC)C(C)C)[nH]4)cc3)cc2)[nH]1)C(C)C | 0.0198 | –
24 | CC[C@H](NC(=O)OC)C(=O)N1[C@@H]2CC[C@@H](C2)[C@H]1c1ncc(-c2ccc(-c3ccc4cc(-c5cnc([C@@H]6CC7(CC7)CN6C(=O)[C@@H](NC(=O)OC)C(C)C)[nH]5)ccc4c3)cc2)[nH]1 | 0.0086 | –
25 | COC(=O)N[C@H](C(=O)N1CCC[C@H]1c1ncc(-c2ccc(C#Cc3ccc(-c4cnc([C@@H]5CN(C(=O)OC(C)(C)C)CN5C(=O)[C@@H](NC(=O)OC)C(C)C)[nH]4)cc3)cc2)[nH]1)C(C)C | 0.318 | –
26 | COC(=O)N[C@H](C(=O)N1CCC[C@H]1c1ncc(-c2ccc(-c3ccc(-c4cnc([C@@H]5CSC(c6ccncc6)N5C(=O)OCc5ccccc5)[nH]4)cc3)cc2)[nH]1)C(C)C (single isomer, unassigned) [drawing 1301] | – | 0.0765
27 | COC(=O)N[C@H](C(=O)N1CCC[C@H]1C(=O)Nc1cccc(-c2ccc(-c3ccc(-c4cnc([C@@H]5CCCN5C(=O)[C@@H](NC(=O)OC)C(C)C)[nH]4)cc3)cc2)c1)C(C)C | 0.0111 | –
28 | COC(=O)N[C@@H](CCC#N)C(=O)N1[C@@H]2CC[C@@H](C2)[C@H]1c1nc2ccc(-c3ccc4c(c3)C(F)(F)c3cc(-c5cnc([C@@H]6CC7(CC7)CN6C(=O)[C@@H](NC(=O)OC)C(C)C)[nH]5)ccc3-4)cc2[nH]1 | 0.006 | –
29 | COC(=O)NC(C(=O)N1CCC[C@H]1c1ncc(-c2ccc(-c3ccc4cc(-c5cnc([C@@H]6CCCN6C(=O)[C@@H](NC(=O)OC)C(C)C)[nH]5)ccc4c3)cc2)[nH]1)C1CCS(=O)(=O)CC1 (stereo partly drawn) | 0.135 | –
30 | COC(=O)N[C@H](C(=O)N1CCC[C@H]1c1ncc(-c2ccc(-c3ccc(-c4cnc([C@@H]5CN(C(=O)OC(C)(C)C)CN5C(=O)[C@@H](NC(=O)OC)C(C)C)[nH]4)cc3)cc2)[nH]1)C(C)C | 0.005 | –
31 | COC(=O)N[C@H](C(=O)N1CCC[C@H]1c1ncc(-c2ccc3cc(-c4ccc(-c5cnc([C@@H]6CCCN6C(=O)[C@H](NC(=O)OC)c6cccs6)[nH]5)cc4)ccc3c2)[nH]1)C(C)C | 0.0262 | –
32 | COC(=O)N[C@H](C(=O)N1CCC[C@H]1c1ncc(C#Cc2ccc(C#Cc3cnc([C@@H]4CCCN4C(=O)[C@@H](NC(=O)OC)C(C)C)[nH]3)cc2)[nH]1)C(C)C | 0.0474 | –
33 | COC(=O)N[C@H](C(=O)N1CCC[C@H]1c1ncc(-c2ccc(-c3ccc4cc(-c5ccc6nc([C@@H]7[C@H]8CC[C@H](C8)N7C(=O)[C@@H](NC(=O)OC)C(C)C)[nH]c6c5)ccc4c3)cc2)[nH]1)C(C)C | 0.0898 | –
34 | COC(=O)N[C@H](C(=O)N1CCC[C@H]1c1ncc(-c2ccc(-c3ccc4nc([C@@H]5CCCN5C(=O)[C@@H](NC(=O)OC)C(C)C)[nH]c4c3)cc2)[nH]1)C(C)C | 0.0372 | –
35 | COC(=O)N[C@H](C(=O)N1CCC[C@H]1c1nc2ccc(-c3ccc(-c4ccc(-c5cnc([C@@H]6[C@H]7CC[C@H](C7)N6C(=O)[C@@H](NC(=O)OC)C(C)C)[nH]5)cc4)cc3)cc2[nH]1)C(C)C | 0.0213 | –
36 | COC(=O)N[C@H](C(=O)N1CCC[C@H]1c1ncc(-c2ccc(-c3ccc(-c4cnc([C@@H]5CC[C@@H]6CC[C@H](NC(=O)OC(C)(C)C)C(=O)N65)[nH]4)cc3)cc2)[nH]1)C(C)C | 0.325 | –
37 | COC(=O)N[C@H](C(=O)N1CCC[C@H]1c1nc(-c2ccc3c(c2)C(F)(F)c2cc(-c4cnc([C@@H]5CC6(CC6)CN5C(=O)[C@@H](NC(=O)OC)C(C)C)[nH]4)ccc2-3)c[nH]1)C(C)C | 0.0125 | –
38 | COC(=O)NC(C(=O)N1CCC[C@H]1c1ncc(-c2ccc(-c3ccc4cc(-c5cnc([C@@H]6CCCN6C(=O)[C@@H](NC(=O)OC)C(C)C)[nH]5)ccc4c3)cc2)[nH]1)=C1CCOCC1 | 0.0483 | –
39 | COC(=O)N[C@@H](C)C(=O)N1CCC[C@H]1c1ncc(-c2ccc(-c3ccc4cc(-c5cnc([C@@H]6[C@H]7CC[C@H](C7)N6C(=O)[C@@H](NC(=O)OC)C(C)C)[nH]5)ccc4c3)cc2)[nH]1 | 0.034 | –

Source: patent US8822430B2 (Gilead Sciences, Inc., priority 2009, dated 2014)
